A short description of experiment [1]: Inhibition of Strep-tagged recombinant human RHBDL2 extracted from Expi293 cells using KSp118 as substrate incubated for 1 hr by fluorescence based assay. It counts as cell-free.
For experiment [2], the target named is T1, Rhomboid protease GlpG (Escherichia coli (strain K12), UniProt P09391).
T1 sequence (P09391 whole entry): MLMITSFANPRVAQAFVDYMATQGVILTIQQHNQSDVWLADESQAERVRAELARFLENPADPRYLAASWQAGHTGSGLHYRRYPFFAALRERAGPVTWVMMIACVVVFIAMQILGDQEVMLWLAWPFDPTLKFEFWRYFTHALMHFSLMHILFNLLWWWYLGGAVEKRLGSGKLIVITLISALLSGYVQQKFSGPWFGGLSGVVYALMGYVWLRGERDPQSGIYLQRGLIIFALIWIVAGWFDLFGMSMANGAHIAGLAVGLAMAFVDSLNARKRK
As to the kind of experiment: Inhibition of Escherichia coli GlpG extracted from Escherichia coli C43(DE3) using KSp96 as substrate incubated for 1 hr by fluorescence based assay. Conditions: for Ki: read-out: Ki(app).

The target of experiment [3] is T2, Presenilin-associated rhomboid-like protein, mitochondrial (Homo sapiens, UniProt Q9H300).
T2 sequence (Q9H300 whole entry): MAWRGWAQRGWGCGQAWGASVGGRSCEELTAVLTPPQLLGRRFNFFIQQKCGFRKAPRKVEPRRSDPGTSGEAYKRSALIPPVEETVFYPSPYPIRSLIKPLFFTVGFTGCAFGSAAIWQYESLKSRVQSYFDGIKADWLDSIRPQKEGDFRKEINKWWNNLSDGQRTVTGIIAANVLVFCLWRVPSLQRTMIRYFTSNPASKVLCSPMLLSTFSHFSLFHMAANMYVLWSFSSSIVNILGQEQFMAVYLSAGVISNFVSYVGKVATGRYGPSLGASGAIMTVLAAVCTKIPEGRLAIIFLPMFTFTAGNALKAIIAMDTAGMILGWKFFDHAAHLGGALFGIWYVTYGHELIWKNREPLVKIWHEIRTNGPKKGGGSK
As to the kind of experiment: Inhibition of tetracycline-inducible FLAG-tagged human PARL stably transfected in HEK293T harboring FITR/PARL KO. The format is cell-based.

A short description of experiment [4]: Selectivity index, ratio of IC50 for rhomboid (unknown origin) to IC50 for Strep-tagged recombinant human RHBDL2 extracted from Expi293 cells using KSp118 as substrate.
A short description of experiment [5]: Selectivity index, ratio of IC50 for rhomboid (unknown origin) to IC50 for recombinant human PARL using KSp106 as substrate.
Experiment [6] is described as follows: Selectivity index, ratio of IC50 for rhomboid (unknown origin) to IC50 for Escherichia coli GlpG extracted from Escherichia coli C43(DE3) using KSp96 as substrate.
Experiment [7] deals with T1, Rhomboid protease GlpG. As to the kind of experiment: Inhibition of GlpG in wild-type Escherichia coli MC4100 using MBP-Flag-LacYTMD2-Trx as substrate.

These results are taken from ChEMBL document CHEMBL5579836, “Extensive targeting of chemical space at the prime side of ketoamide inhibitors of rhomboid proteases by branched substituents empowers their selectivity and potency” (Eur J Med Chem, 2024).

Starred links: 1 amine or outer side, 2 acyl side, 3 side chain; linkers in the order of their positions; H or OH if unused. Non-standard residues stand in square brackets, D forms with d. Residues, ends and D or L forms follow the SMILES beside them. *: point of attachment. Pheol(OBn) = c1ccc(COC[C@H](Cc2ccccc2)N*)cc1; NH(4-phenylbutyl) = c1ccc(CCCCN*)cc1; X1 = C[C@H](N[*:1])C(=O)C(=O)[*:2]

What is called IC50 is the point on the concentration scale where inhibition reaches its midpoint. What is called EC50 is the concentration giving half of the maximal effect.

On to `CC(=O)N[C@@H](C)C(=O)N[C@H](C(=O)N[C@@H](Cc1ccccc1)C(=O)N[C@@H](CC(C)C)C(=O)N[C@@H](C)C(=O)C(=O)NCCCCc1ccccc1)C(C)C` (Ac-AVFL[X1]-{NH(4-phenylbutyl)}), for which the IC50 was 32800 nM in experiment [1] and 300 nM at Rhomboid protease GlpG [2]. In experiment [3], this molecule displayed an EC50 of 445 nM. Further, the Ratio IC50 worked out at 1150 in experiment [4], 1 in experiment [5] and 10.6 in experiment [6].

Consider `CC(=O)N[C@@H](C)C(=O)N[C@H](C(=O)N[C@@H](Cc1ccccc1)C(=O)N[C@@H](CC(C)C)C(=O)N[C@@H](C)C(=O)C(=O)N[C@H](COCc1ccccc1)Cc1ccccc1)C(C)C` (Ac-AVFL[X1]-{Pheol(OBn)}), for which the values for the IC50 (in experiment [1]; against Rhomboid protease GlpG [2]) were 55500 nM and 14.8 nM, respectively.

For `CC(=O)N[C@H](C(=O)N[C@@H](CCCNC(=N)N)C(=O)N[C@@H](Cc1c[nH]cn1)C(=O)N[C@@H](C)C(=O)C(=O)N[C@H](COCc1ccccc1)Cc1ccccc1)C(C)C`, the IC50 in experiment [1] is 5390 nM. Also, on Rhomboid protease GlpG [2], the IC50 worked out at 2.5 nM and the Ki stood at 1.4 nM. This molecule had an EC50 at Rhomboid protease GlpG [7] of 173 nM.

As for `CCCCc1ccc(OCC[C@H](Cc2ccccc2)NC(=O)C(=O)[C@H](C)NC(=O)[C@H](Cc2c[nH]cn2)NC(=O)[C@H](CCCNC(=N)N)NC(=O)[C@@H](NC(C)=O)C(C)C)cc1`, at Rhomboid protease GlpG [2], the IC50 is 1.9 nM and the Ki is 0.7 nM. The same molecule came in with an EC50 on Rhomboid protease GlpG [7] of 131 nM.

For `CC(=O)N[C@H](C(=O)N[C@@H](CCCNC(=N)N)C(=O)N[C@@H](Cc1c[nH]cn1)C(=O)N[C@@H](C)C(=O)C(=O)NCCc1ccccc1)C(C)C`, the IC50 against Rhomboid protease GlpG [2] was 56.1 nM. Further, at Rhomboid protease GlpG [7], a half-maximal effect (EC50) was put at 1610 nM.

In the case of `CC(=O)N1CCC[C@H]1C(=O)N[C@H](C(=O)N[C@@H](C)C(=O)N[C@@H](CCCCN)C(=O)N[C@@H](C)C(=O)C(=O)NCCCCc1ccccc1)C(C)C` (Ac-PVAK[X1]-{NH(4-phenylbutyl)}), the IC50 in experiment [1] was found to be 712 nM; at Rhomboid protease GlpG [2], 330 nM.

In the case of `CC(=O)N[C@H](C(=O)N[C@@H](CCCNC(=N)N)C(=O)N[C@@H](Cc1c[nH]cn1)C(=O)N[C@@H](C)C(=O)C(=O)NC(CCCc1ccccc1)Cc1ccccc1)C(C)C` (mixture of isomers), at Rhomboid protease GlpG [2], the IC50 turned out to be 2.3 nM and the Ki came to 1.3 nM. Also, a half-maximal effect at Rhomboid protease GlpG [7] (EC50) was put at 123 nM.

As to `CC(C)CC(=O)N[C@@H](CCCNC(=N)N)C(=O)N[C@@H](Cc1c[nH]cn1)C(=O)N[C@@H](C)C(=O)C(=O)N[C@H](COCc1ccccc1)Cc1ccccc1`, the IC50 against Rhomboid protease GlpG [2] was 2.3 nM. On Rhomboid protease GlpG [7], this molecule showed an EC50 of 337 nM.

`C[C@H](NC(=O)[C@H](Cc1c[nH]cn1)NC(=O)[C@H](CCCNC(=N)N)NC(=O)CCc1ccccc1)C(=O)C(=O)N[C@H](COCc1ccccc1)Cc1ccccc1` registered an IC50 on Rhomboid protease GlpG [2] of 2 nM. On Rhomboid protease GlpG [7], this molecule yielded an EC50 of 424 nM.

For `CC(C)CC(=O)N[C@H](C(=O)N[C@@H](C)C(=O)N[C@@H](CCCCN)C(=O)N[C@@H](C)C(=O)C(=O)NCCCCc1ccccc1)C(C)C`, the IC50 in experiment [1] came out at 236 nM.

As for `CC(=O)N[C@H](C(=O)N[C@@H](CCCNC(=N)N)C(=O)N[C@@H](Cc1c[nH]cn1)C(=O)N[C@@H](C)C(=O)C(=O)NCCCCc1ccccc1)C(C)C`, the figures for the IC50 (in experiment [1]; on Rhomboid protease GlpG [2]) were 6210 nM and 44.4 nM, respectively. Further, a half-maximal response on Rhomboid protease GlpG [7] (EC50) required 1470 nM.

`CC(=O)N1CCC[C@H]1C(=O)N[C@H](C(=O)N[C@@H](C)C(=O)N[C@@H](CCCCN)C(=O)N[C@@H](C)C(=O)C(=O)N[C@H](COCc1ccccc1)Cc1ccccc1)C(C)C` (Ac-PVAK[X1]-{Pheol(OBn)}): the IC50 in experiment [1] stood at 768 nM; at Rhomboid protease GlpG [2], 5.6 nM.
